The values below come from patent US10577369B2, “Substituted quinazolinones for inhibiting PI3K” (priority 2016, dated 2020).

Where two headings read alike, the source gives them in different places.

Series [1] deals with diffuse large B-cell lymphoma (DLBCL) and acute lymphocytic leukemia (ALL) cells. Briefly: Apoptosis of DLBCL and ALL cells by flow cytometry (Annexin V-FITC/PI). It is filed as cell-based. The note with it: 50 μM, 24 hours, FIG. 5. As to the method:
The cells were washed with PBS, and then suspended in a binding buffer. 5 μl of an Annexin V-FITC stock solution (Becton Dickinson Science, Inc) and 5 μl of PI (20 μg/ml) were added thereto, followed by incubation at room temperature for 15 minutes with light-shielding, and then the target material was quantified on FACScan™ (Becton Dickinson) by flow cytometry.
On the technique in general: In flow cytometry, cells or beads pass a laser one at a time.

In a further series the target is T1, PI3K p110α (Homo sapiens, UniProt P42336).
T1 construct: purchased Thermo Fisher Scientific Inc. (SelectScreen Services)
T1 sequence (P42336 whole entry): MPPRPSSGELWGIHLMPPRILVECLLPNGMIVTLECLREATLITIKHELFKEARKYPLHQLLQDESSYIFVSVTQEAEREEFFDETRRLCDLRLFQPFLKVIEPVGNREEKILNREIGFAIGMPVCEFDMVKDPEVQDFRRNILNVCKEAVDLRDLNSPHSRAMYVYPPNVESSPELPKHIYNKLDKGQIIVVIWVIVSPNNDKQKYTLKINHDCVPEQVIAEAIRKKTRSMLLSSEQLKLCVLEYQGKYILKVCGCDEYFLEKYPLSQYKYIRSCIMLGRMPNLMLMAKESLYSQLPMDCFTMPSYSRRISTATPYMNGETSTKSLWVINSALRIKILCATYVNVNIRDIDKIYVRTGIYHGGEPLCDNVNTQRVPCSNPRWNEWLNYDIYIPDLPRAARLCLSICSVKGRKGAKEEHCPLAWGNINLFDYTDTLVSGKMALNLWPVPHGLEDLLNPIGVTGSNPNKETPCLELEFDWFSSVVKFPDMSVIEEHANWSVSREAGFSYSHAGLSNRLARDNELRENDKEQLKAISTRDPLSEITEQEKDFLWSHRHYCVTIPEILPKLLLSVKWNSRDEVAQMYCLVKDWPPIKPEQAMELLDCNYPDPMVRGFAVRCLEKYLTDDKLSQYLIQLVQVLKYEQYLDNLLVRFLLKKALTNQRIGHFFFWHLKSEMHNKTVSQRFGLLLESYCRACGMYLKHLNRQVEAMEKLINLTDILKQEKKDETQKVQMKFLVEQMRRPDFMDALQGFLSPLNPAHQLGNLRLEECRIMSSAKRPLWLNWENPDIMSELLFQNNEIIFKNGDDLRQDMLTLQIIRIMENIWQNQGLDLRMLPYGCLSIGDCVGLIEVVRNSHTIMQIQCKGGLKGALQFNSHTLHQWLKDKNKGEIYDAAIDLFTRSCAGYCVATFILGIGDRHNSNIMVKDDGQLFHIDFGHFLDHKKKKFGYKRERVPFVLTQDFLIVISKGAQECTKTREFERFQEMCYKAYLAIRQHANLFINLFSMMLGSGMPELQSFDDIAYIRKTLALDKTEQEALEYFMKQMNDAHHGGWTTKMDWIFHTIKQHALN
T1 sequence (P27986 whole entry partner): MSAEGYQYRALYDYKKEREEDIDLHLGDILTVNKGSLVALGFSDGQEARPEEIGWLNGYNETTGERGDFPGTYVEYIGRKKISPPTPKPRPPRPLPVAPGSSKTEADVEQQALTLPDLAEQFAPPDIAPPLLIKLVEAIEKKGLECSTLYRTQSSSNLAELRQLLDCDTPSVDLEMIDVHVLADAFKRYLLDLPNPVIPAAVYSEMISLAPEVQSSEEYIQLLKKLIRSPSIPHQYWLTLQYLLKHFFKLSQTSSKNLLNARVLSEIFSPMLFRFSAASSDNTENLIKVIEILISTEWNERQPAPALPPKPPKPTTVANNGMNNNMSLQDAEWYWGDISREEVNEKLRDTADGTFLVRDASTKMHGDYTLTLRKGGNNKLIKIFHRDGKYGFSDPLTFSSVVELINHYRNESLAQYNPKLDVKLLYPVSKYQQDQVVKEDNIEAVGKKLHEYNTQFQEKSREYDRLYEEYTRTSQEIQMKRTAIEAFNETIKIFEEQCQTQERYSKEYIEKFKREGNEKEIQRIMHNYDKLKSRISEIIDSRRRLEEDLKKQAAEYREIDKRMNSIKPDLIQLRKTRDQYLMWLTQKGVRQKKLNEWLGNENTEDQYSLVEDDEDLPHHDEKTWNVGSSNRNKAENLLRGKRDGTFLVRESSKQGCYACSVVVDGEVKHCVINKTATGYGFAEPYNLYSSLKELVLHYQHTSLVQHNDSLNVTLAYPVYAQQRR
Briefly: PI3K kinase activity test (Adapta kinase assay), p110α. Format: biochemical. On the procedure: (§1) An experiment was conducted using a homogeneous, fluorescence-based immunoassay, which is Adapta kinase assay. SelectScreen™ Services available from Thermo Fisher Scientific Inc. was carried out.

A further series deals with T2, PI3K p110β (Homo sapiens, UniProt P42338).
T2 construct: purchased Thermo Fisher Scientific Inc. (SelectScreen Services)
T2 sequence (P42338 whole entry): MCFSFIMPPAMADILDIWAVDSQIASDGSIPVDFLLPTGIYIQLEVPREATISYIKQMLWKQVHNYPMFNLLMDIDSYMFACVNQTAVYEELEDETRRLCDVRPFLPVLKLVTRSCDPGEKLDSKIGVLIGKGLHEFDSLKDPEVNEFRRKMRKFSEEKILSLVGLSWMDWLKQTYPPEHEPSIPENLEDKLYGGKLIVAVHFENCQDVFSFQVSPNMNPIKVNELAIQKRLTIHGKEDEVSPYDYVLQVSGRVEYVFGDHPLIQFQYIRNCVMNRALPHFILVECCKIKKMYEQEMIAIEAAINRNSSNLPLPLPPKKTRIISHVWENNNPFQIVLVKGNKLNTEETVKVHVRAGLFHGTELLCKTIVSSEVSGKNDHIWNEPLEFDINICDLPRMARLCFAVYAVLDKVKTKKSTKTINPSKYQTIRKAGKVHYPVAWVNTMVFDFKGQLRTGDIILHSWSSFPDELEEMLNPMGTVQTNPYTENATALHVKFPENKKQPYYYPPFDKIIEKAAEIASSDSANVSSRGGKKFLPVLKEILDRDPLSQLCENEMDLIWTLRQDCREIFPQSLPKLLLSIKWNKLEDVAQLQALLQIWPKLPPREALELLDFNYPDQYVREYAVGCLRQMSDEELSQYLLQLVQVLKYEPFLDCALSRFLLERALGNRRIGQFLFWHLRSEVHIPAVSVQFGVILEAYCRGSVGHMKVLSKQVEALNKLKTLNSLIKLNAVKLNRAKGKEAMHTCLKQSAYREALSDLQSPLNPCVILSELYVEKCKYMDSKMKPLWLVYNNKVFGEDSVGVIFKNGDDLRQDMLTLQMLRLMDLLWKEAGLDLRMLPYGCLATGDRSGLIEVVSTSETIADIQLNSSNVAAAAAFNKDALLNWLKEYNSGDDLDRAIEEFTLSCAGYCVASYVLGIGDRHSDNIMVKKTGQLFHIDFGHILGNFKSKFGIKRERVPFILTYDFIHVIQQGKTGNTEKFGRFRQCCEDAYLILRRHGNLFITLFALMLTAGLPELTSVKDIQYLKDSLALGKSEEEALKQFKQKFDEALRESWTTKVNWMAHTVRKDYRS
T2 sequence (P27986 whole entry partner): as the sequence (P27986 whole entry partner) above
In words: PI3K kinase activity test (Adapta kinase assay), p110β. It is filed as biochemical. As to the method:
as §1

Series [2] has as its system diffuse large B-cell lymphoma (DLBCL) and acute lymphocytic leukemia (ALL) cells. Briefly: Apoptosis of DLBCL and ALL cells by SDS-PAGE / immunoblotting (caspase 3, 9, PARP cleavage). It is filed as cell-based. The note with it: 50 μM, 36 hours; FIG. 4. On the procedure: Immunoblotting analysis was performed using antibodies of these, and glyceraldehyde-3-phosphate dehydrogenase (GAPDH) was used as a loading control.

The next series deals with rats. Briefly: Single dose toxicity test in rats. It is filed as in vivo, rat. As to conditions: single oral dose, female rats, observed day 1 to day 2; approximate lethal dose. On the procedure: The compound of Formula 7 and the compound of Formula 8 were orally administered to eight six-week-old female rats, to observe the single dose oral toxicity thereof and to obtain an approximate lethal dose. The dosage was set at 10 mL/kg, and the dosage for each rat was calculated based on body weight. Each compound was administered at doses of 100 mg/kg, 300 mg/kg, 900 mg/kg, and 1,500 mg/kg, and general symptoms were observed once a day from day 1 to day 2 after administration.

In series [3] the test system is human umbilical vein endothelial cells (HUVECs). In words: Number of viable HUVECs treated with compound. It is filed as cell-based. As to conditions: FIG. 8.
The subject of the next series is Phospho-Akt (Ser473). Briefly: AKT (Ser473) phosphorylation in leukemia and lymphoma cell lines (immunoblotting). The note with it: 1 μM, 1 hour; SUDHL 5, SUDHL 10, CCRF-SB, MOLT4; FIG. 2. It is filed as cell-based. An excerpt:
Subsequently, cells were lysed and fractionated according to size, followed by immunoblotting with antibodies directed against Phospho-Akt (Ser473).
On the technique in general: A western blot detects proteins with antibodies after separation by electrophoresis.

The target in a further series is T3, PI3K p110γ (Homo sapiens, UniProt P48736).
T3 construct: purchased Thermo Fisher Scientific Inc. (SelectScreen Services)
T3 sequence (P48736 whole entry): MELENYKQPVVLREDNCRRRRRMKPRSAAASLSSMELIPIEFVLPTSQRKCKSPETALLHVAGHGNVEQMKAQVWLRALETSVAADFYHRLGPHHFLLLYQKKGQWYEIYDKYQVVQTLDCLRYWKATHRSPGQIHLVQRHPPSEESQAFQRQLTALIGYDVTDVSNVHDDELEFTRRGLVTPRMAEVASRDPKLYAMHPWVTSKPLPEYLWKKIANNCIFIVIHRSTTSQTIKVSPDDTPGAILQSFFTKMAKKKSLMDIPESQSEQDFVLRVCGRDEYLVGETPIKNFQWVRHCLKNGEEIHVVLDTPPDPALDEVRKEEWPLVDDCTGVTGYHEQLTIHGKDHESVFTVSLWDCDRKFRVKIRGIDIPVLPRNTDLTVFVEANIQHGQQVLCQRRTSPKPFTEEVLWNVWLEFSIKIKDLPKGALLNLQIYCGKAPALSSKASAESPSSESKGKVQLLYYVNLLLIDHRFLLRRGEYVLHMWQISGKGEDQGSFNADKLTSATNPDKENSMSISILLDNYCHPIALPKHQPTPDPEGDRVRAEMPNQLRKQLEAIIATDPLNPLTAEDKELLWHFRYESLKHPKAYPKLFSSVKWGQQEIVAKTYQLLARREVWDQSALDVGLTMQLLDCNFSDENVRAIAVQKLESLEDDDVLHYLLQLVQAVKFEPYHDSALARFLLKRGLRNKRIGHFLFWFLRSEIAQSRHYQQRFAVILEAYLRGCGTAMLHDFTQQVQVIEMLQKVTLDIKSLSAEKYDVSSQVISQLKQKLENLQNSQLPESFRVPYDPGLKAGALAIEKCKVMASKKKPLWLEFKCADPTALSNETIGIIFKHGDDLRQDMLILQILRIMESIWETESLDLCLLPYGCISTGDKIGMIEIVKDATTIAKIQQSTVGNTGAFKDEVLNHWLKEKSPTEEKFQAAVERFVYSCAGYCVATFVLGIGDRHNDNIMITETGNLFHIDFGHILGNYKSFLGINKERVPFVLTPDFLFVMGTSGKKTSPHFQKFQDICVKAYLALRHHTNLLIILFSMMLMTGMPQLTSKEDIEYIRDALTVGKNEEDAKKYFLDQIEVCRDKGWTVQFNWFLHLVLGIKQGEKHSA
Briefly: PI3K kinase activity test (Adapta kinase assay), p110γ. It is filed as biochemical. As to the method:
as §1

Another series relates to MOLT4 (ALL) cells. In words: Growth inhibition of leukemia cells (CCK-8), MOLT4. Format: cell-based. As to conditions: Homo sapiens, read-out: LC50 MOLT4 (ALL). On the procedure: (§2) Cell growth-inhibiting effects on the DLBCL-derived cells and the ALL-derived cells were evaluated by measuring the absorbance of cell counting kit-8 (CCK-8) dye. During the last 3 hours of the 48 hours, […] of a CCK-8 dye was added to each plate and then cultured.
(§3) All data are expressed as the mean (±SD) of three independent experiments.

The test system of a further series is SUDHL5 (DLBCL) cells. In words: Growth inhibition of lymphoma cells (CCK-8), SUDHL5. Format: cell-based. The note with it: Homo sapiens, read-out: LC50 SUDHL5 (DLBCL). On the procedure: as §2, §3
Series [4] deals with human umbilical vein endothelial cells (HUVECs). Briefly: Angiogenesis inhibition, HUVEC tube formation. It is filed as cell-based. As to conditions: HUVECs on basement membrane matrix, 18 hours; FIG. 7. On the procedure:
After 18 hours, tube formation was photographed using a Cytation™ 5 fluorescence microscope (BioTek), and the number of areas formed by branch points was counted using software (see FIG. 6).

The target in a further series is T4, PI3K p110δ (Homo sapiens, UniProt O00329).
T4 construct: purchased Thermo Fisher Scientific Inc. (SelectScreen Services)
T4 sequence (O00329 whole entry): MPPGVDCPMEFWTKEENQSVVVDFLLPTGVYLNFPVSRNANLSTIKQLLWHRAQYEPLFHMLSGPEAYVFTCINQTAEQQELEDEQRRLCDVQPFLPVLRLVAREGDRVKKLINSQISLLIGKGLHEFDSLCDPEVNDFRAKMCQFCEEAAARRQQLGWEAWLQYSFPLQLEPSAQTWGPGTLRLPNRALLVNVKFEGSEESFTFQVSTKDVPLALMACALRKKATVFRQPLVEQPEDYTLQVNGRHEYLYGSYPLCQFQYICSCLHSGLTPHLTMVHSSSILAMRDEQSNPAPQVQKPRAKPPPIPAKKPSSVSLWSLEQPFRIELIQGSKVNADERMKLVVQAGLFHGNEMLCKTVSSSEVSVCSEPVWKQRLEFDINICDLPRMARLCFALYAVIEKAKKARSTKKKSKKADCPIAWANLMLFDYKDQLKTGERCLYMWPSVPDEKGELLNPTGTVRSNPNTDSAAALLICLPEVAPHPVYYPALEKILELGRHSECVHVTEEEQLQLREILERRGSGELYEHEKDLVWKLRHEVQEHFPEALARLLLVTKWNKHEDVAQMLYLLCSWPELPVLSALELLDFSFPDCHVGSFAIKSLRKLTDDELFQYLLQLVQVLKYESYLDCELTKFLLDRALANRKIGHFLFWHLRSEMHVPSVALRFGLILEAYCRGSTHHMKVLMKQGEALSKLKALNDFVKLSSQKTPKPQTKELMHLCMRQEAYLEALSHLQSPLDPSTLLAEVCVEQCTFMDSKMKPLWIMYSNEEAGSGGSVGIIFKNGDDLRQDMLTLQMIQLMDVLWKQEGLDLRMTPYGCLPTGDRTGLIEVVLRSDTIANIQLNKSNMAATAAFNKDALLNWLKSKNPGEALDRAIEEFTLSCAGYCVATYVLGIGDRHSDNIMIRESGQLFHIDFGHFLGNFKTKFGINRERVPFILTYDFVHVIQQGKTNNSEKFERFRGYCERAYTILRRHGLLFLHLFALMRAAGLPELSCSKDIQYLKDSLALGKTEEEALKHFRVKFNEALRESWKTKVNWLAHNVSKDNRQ
T4 sequence (P27986 whole entry partner): as the sequence (P27986 whole entry partner) above
In words: PI3K kinase activity test (Adapta kinase assay), p110δ. It is filed as biochemical. The note with it: for IC50: Adapta kinase assay; for ratio PI3Kα/PI3Kδ, as IC50 values / ratio PI3Kβ/PI3Kδ, as IC50 values / ratio of PI3Kγ/PI3Kδ: selectivity, ratio of IC50 values. As to the method:
as §1

The next series concerns SupB15 (ALL) cells. In words: Growth inhibition of leukemia cells (CCK-8), SupB15. Format: cell-based. As to conditions: Homo sapiens, read-out: LC50 SupB15 (ALL). As to the method: as §2, §3

As usually defined, the IC50 is the midpoint of a concentration-inhibition curve. Low values mean greater potency, high ones weaker potency. Regarding `O=c1c2c(F)cccc2nc([C@@H](Nc2ncnc3nc[nH]c23)C2CC2)n1-c1ccccc1` [Formula 7, (S)-2-(((7H-purin-6-yl)amino)(cyclopropyl)methyl)-5-fluoro-3-phenylquinazolin-4(3H)-one], the “apoptosis induction compared with idelalisib (flow cytometry)” value in series [1] was “more effectively induced apoptosis than the comparative drug”. Besides, the 50% inhibitory concentration (IC50) at PI3K p110α stood at 206 nM; against PI3K p110β, 105 nM; on PI3K p110γ it was 25.7 nM; against PI3K p110δ, 0.5 nM. For the same compound, the “apoptosis compared with comparative drug idelalisib (SDS-PAGE)” value in [2] is on record as “apoptosis occurred more actively”. The “apoptosis induction (SDS-PAGE, immunoblotting)” value in series [2] is recorded as “induced apoptosis”. Besides, the lethal dose with rats is recorded as > 1,500 mg/kg. In addition, the “cytotoxicity to HUVECs (number of viable cells)” value in series [3] was “did not significantly affect the cytotoxicity”. The “reduction of AKT (Ser473) phosphorylation” value with Phospho-Akt (Ser473) was “induced the reduction of AKT phosphorylation”. For the same compound, the CC50 in the series on MOLT4 (ALL) cells (MOLT-4, 48 h) was 13700 nM; with SUDHL5 (DLBCL) cells (SU-DHL-5, 48 h), 1100 nM; in the series with SupB15 (ALL) cells (SUP-B15, 48 h), more than 20000 nM. Besides, in [4], the “inhibition of angiogenesis (tube formation) compared with idelalisib” value is given as “inhibited angiogenesis more than the comparative drug”. In addition, the “ratio PI3Kα/PI3Kδ, as IC50 values” on PI3K p110δ is 412. For the same compound, the “ratio PI3Kβ/PI3Kδ, as IC50 values” on PI3K p110δ turned out to be 210. Also, the “ratio of PI3Kγ/PI3Kδ” value on PI3K p110δ is recorded as 51.
Take `Cc1cccc2nc([C@@H](Nc3ncnc4nc[nH]c34)C3CC3)n(-c3ccccc3)c(=O)c12` [Formula 8, (S)-2-(((7H-purin-6-yl)amino)(cyclopropyl)methyl)-5-methyl-3-phenylquinazolin-4(3H)-one]: the “apoptosis induction compared with idelalisib (flow cytometry)” value in [1] is “more effectively induced apoptosis than the comparative drug”. Further, the concentration for half-maximal inhibition (IC50) on PI3K p110α is 134 nM; on PI3K p110β, 162 nM; against PI3K p110γ it was 8.6 nM; against PI3K p110δ, 0.09 nM. In addition, the “apoptosis compared with comparative drug idelalisib (SDS-PAGE)” value in series [2] is given as “apoptosis occurred more actively”. Further, the “apoptosis induction (SDS-PAGE, immunoblotting)” value in series [2] is “induced apoptosis”. The lethal dose with rats was 1,500 mg/kg. Further, the “cytotoxicity to HUVECs (number of viable cells)” value in [3] was “did not significantly affect the cytotoxicity”. Further, the “reduction of AKT (Ser473) phosphorylation” value in the series on Phospho-Akt (Ser473) is on record as “induced the reduction of AKT phosphorylation”. Besides, the CC50 was found to be 4900 nM in the series with MOLT4 (ALL) cells (MOLT-4, 48 h); 900 nM in the series on SUDHL5 (DLBCL) cells (SU-DHL-5, 48 h); 16500 nM with SupB15 (ALL) cells (SUP-B15, 48 h). The “inhibition of angiogenesis (tube formation) compared with idelalisib” value in series [4] is “inhibited angiogenesis more than the comparative drug”. Also, at PI3K p110δ, the “ratio PI3Kα/PI3Kδ, as IC50 values” is listed as 1,488. Besides, the “ratio PI3Kβ/PI3Kδ, as IC50 values” at PI3K p110δ was 1,800. Also, the “ratio of PI3Kγ/PI3Kδ” value at PI3K p110δ worked out at 95.
As for `CC[C@H](Nc1ncnc2[nH]cnc12)c1nc2cccc(F)c2c(=O)n1-c1ccccc1` [Idelalisib, idelalisib, reference compound], the CC50 in the series with MOLT4 (ALL) cells (MOLT-4, 48 hours, CCK-8) was more than 20000 nM; in the series with SUDHL5 (DLBCL) cells (SU-DHL-5, 48 hours, CCK-8), 3000 nM; in the series with SupB15 (ALL) cells (SUP-B15, 48 hours, CCK-8) it was more than 20000 nM.
